Source: the supplement of paper PMC10307832

Experiments:
Assay in all cases: relative viability (nuclei count vs DMSO), 5 days (fraction); higher = more cells survive
Quizartinib + Bortezomib = compound: CC(C)(C)c1cc(NC(=O)Nc2ccc(-c3cn4c(n3)sc3cc(OCCN5CCOCC5)ccc34)cc2)no1 [Quizartinib] + CC(C)C[C@H](NC(=O)[C@H](Cc1ccccc1)NC(=O)c1cnccn1)B(O)O [Bortezomib] (partner 0.002 µM)
In short: (§1)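 Lung cancer cell lines in 1536-well plates got either a single drug or a fixed anchor-drug dose together with five library-drug doses (not always all listed) in √10 steps, by pin tool, on the day after seeding. Nuclei were counted after 5 days, and relative viability is the treated-to-vehicle ratio of nuclei counts. Values are medians of duplicate plates.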

Quizartinib + Crizotinib = compound: CC(C)(C)c1cc(NC(=O)Nc2ccc(-c3cn4c(n3)sc3cc(OCCN5CCOCC5)ccc34)cc2)no1 [Quizartinib] + C[C@@H](Oc1cc(-c2cnn(C3CCNCC3)c2)cnc1N)c1c(Cl)ccc(F)c1Cl [Crizotinib] (partner 1 µM)
In short: as §1

YM155 + AZD7762 = compound: COCC[n+]1c2c(n(Cc3cnccn3)c1C)C(=O)c1ccccc1C2=O [YM155] + NC(=O)Nc1cc(-c2cccc(F)c2)sc1C(=O)N[C@H]1CCCNC1 [AZD7762] (partner 0.2 µM)
In short: as §1

YM155 + Bortezomib = compound: COCC[n+]1c2c(n(Cc3cnccn3)c1C)C(=O)c1ccccc1C2=O [YM155] + CC(C)C[C@H](NC(=O)[C@H](Cc1ccccc1)NC(=O)c1cnccn1)B(O)O [Bortezomib] (partner 0.002 µM)
In short: as §1

Row | Cell Line | relative viability (Quizartinib + Bortezomib; first compound 0.003162 µM) | relative viability (Quizartinib + Bortezomib; first compound 0.01 µM) | relative viability (Quizartinib + Bortezomib; first compound 0.1 µM) | relative viability (Quizartinib + Crizotinib; first compound 0.003162 µM) | relative viability (Quizartinib + Crizotinib; first compound 0.01 µM) | relative viability (Quizartinib + Crizotinib; first compound 0.03162 µM) | relative viability (Quizartinib + Crizotinib; first compound 0.1 µM) | relative viability (YM155 + AZD7762; first compound 0.002 µM) | relative viability (YM155 + AZD7762; first compound 0.006325 µM) | relative viability (YM155 + AZD7762; first compound 0.02 µM) | relative viability (YM155 + AZD7762; first compound 0.06325 µM) | relative viability (YM155 + Bortezomib; first compound 0.002 µM) | relative viability (YM155 + Bortezomib; first compound 0.006325 µM) | relative viability (YM155 + Bortezomib; first compound 0.02 µM) | relative viability (YM155 + Bortezomib; first compound 0.06325 µM) | relative viability (Quizartinib + Bortezomib; first compound 0.001 µM) | relative viability (Quizartinib + Bortezomib; first compound 0.03162 µM) | relative viability (Quizartinib + Crizotinib; first compound 0.001 µM)
1 | LCLC-97TM1 | 0.689 | 0.811 | 0.527 | 0.27 | 0.463 | 0.297 | 0.417 | 0.158 | 0.251 | 0.231 | 0.096 | 0.313 | 0.74 | 0.621 | 0.185 |  |  | 
2 | LCLC-103H | 1.01 | 0.994 | 1.12 | 1.16 | 0.992 | 1.05 | 1.02 | 0.752 | 0.821 | 0.832 | 0.781 | 1.01 | 1.06 | 1.17 | 1.1 | 0.871 | 1 | 0.784
3 | LOU-NH91 | 0.509 | 0.538 | 0.513 | 0.715 | 0.771 | 0.729 | 0.79 | 0.766 | 0.756 | 0.769 | 0.8 | 0.704 | 0.521 | 0.487 | 0.555 | 0.481 | 0.433 | 0.747
4 | LU99A | 1.08 | 1.3 | 1.2 | 0.507 | 0.656 | 0.534 | 0.507 | 0.553 | 0.27 | 0.412 | 0.28 | 1.17 | 1.11 | 1.16 | 0.965 | 0.837 | 1.19 | 0.49
5 | LXF-289 | 0.955 | 0.983 | 1.03 | 0.787 | 0.821 | 0.8 | 0.726 | 1.1 | 1.07 | 1.07 | 0.937 | 0.944 | 0.93 | 0.989 | 1.02 | 0.868 | 0.949 | 0.743
6 | NCI-H23 | 0.937 | 1.08 | 0.888 | 0.478 | 0.514 | 0.483 | 0.486 |  | 0.292 | 0.308 | 0.239 | 0.7 | 1.05 | 0.929 | 0.455 |  | 0.97 | 
7 | NCI-H322M | 1.26 | 1.27 | 1.15 | 0.803 | 0.955 | 0.857 | 0.997 | 0.53 | 0.579 | 0.593 | 0.572 | 1.22 | 1.18 | 1.19 | 1.37 | 1.15 | 1.24 | 0.881
8 | NCI-H441 | 0.466 | 0.451 | 1.57 | 0.624 | 0.896 | 0.673 | 0.969 | 0.947 | 1.23 | 1.09 | 0.246 | 0.452 | 0.407 | 0.466 | 0.446 | 0.476 | 0.576 | 0.527
9 | NCI-H460 | 0.987 | 1.24 | 0.68 | 0.842 | 1.02 |  | 0.416 | 0.596 | 0.628 | 0.777 | 0.459 | 0.991 | 1.24 | 1.19 | 1.04 | 0.881 |  | 0.708
10 | NCI-H596 | 0.92 | 1.1 | 1.2 | 1 | 1.09 | 0.932 | 0.761 | 0.989 | 0.98 | 1.28 | 1.11 |  | 1.18 | 0.946 | 1.19 | 1.15 | 1.19 | 0.971
11 | NCI-H647 | 1.08 | 0.71 | 1.29 | 0.948 | 1.31 | 1.06 | 0.847 | 0.429 | 0.509 | 0.407 | 0.0872 | 0.777 | 1 | 0.826 | 0.792 | 0.91 | 0.999 | 0.9
12 | NCI-H650 | 0.768 | 0.818 | 1.01 | 0.525 | 0.772 | 0.628 | 0.749 | 0.835 | 0.958 | 1.08 | 0.776 | 1.02 | 0.771 | 1.08 | 0.871 | 0.785 | 0.885 | 0.684
13 | NCI-H727 |  | 0.955 | 0.833 |  | 0.939 | 0.772 | 0.662 | 0.768 | 0.676 | 0.684 | 0.703 | 0.88 | 0.771 | 0.924 | 0.977 | 0.656 | 0.767 | 0.74
14 | NCI-H838 | 0.763 | 0.65 | 0.534 | 0.878 | 0.767 | 0.691 | 0.368 | 0.936 | 0.904 | 0.932 | 0.726 | 0.94 | 1.01 | 0.958 | 0.817 | 0.458 | 0.926 | 0.787
15 | NCI-H1355 | 1.28 | 1.09 | 1.28 | 1.01 | 1.11 | 0.99 | 1.15 | 0.74 | 0.749 | 0.781 | 0.798 | 1.11 | 1.27 | 1.25 | 1.22 | 1.07 | 1.25 | 1.03
16 | NCI-H1437 | 0.492 | 0.393 | 0.255 | 0.849 | 0.906 | 0.687 | 0.608 | 1.11 | 1.08 | 1.1 | 0.926 | 0.501 | 0.501 | 0.516 | 0.519 | 0.354 | 0.49 | 0.822
17 | NCI-H1651 | 0.938 | 1.08 | 0.993 | 0.9 | 0.877 | 0.86 | 0.896 | 0.44 | 0.433 | 0.533 | 0.487 | 0.937 | 0.946 | 0.897 | 0.961 | 0.801 | 0.888 | 0.757
18 | NCI-H1666 | 0.753 | 0.823 | 0.813 | 0.829 | 1.07 | 0.777 | 0.974 | 0.821 | 0.824 | 0.907 | 0.847 | 0.644 |  | 0.815 | 0.718 | 0.738 | 0.511 | 0.917
